Drawing on patent US20140088124A1, “IMIDAZOLE DERIVATIVES” (priority 2011, published 2014), this text covers IC50 for 51 compounds.

This test addresses T1, human DGAT1 (Homo sapiens, UniProt O75907).
T1 sequence (O75907 1-488): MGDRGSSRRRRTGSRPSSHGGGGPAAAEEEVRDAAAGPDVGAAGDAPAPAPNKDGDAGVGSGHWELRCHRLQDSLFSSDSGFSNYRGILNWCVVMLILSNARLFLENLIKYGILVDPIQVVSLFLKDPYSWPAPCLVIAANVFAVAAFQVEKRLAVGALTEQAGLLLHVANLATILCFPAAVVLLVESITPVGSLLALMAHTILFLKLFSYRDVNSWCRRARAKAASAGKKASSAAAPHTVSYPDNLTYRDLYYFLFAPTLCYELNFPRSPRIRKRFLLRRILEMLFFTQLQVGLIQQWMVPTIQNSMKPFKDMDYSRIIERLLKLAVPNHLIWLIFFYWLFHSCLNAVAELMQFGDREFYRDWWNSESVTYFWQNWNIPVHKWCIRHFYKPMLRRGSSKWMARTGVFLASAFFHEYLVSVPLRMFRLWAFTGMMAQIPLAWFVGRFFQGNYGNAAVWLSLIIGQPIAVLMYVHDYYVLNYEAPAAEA
Description: DGAT1 CPM Assay. It counts as biochemical. Conditions: human DGAT1, CPM fluorescence, 1 hour incubation at room temperature. The procedure:
20 uL of 90 uM CPM reagent in 90% ethanol was added after 1 hour incubation at room temperature.
A word on the IC50: it is the concentration that inhibits the measured activity by half. Consider `O=C(O)CC1CC(OC2CCN(c3ccc(-c4nc5cc(F)ccc5[nH]4)cn3)CC2)C1` (stereo not drawn) [Example 54], for which the 50% inhibitory concentration (IC50) was 0.051 µM.

As to `O=C(O)CC1C[C@@H]2CC(OC3CCN(c4ccc(-c5nc6ccc(C(F)(F)F)cc6[nH]5)cn4)CC3)C[C@@H]2C1` (stereo partly drawn) [Example 56], the 50% inhibitory concentration (IC50) was found to be 0.002 µM.

In turn, `O=C(O)CC1C[C@@H]2CC(OC3CCN(c4ccc(-c5nc6ccc(C(F)(F)F)cc6[nH]5)cn4)CC3)C[C@@H]2C1` (stereo partly drawn) [Example 57] returned an IC50 of 0.002 µM.

Take `CC(C)(COC1CCN(c2ccc(-c3nc4cc(F)c(F)cc4[nH]3)cn2)CC1)C(=O)O` [Example 60]: the midpoint of inhibition, the IC50, lay at 0.016 µM.

As to `CC(C)(COC1CCN(c2ccc(-c3nc4cc(C(F)(F)F)cnc4[nH]3)cn2)CC1)C(=O)O` [Example 61], the half-maximal inhibitory concentration (IC50) amounted to 0.046 µM. Compared with the last compound, the IC50 is about 2.9-fold higher.

In the case of `CC(C)(COC1CCN(c2ccc(-c3nc4cc(C#N)ccc4[nH]3)cn2)CC1)C(=O)O` [Example 62], it took 0.09 µM to reach half-maximal inhibition (IC50).

Compound `CC(C)(COC1CCN(c2ccc(-c3nc4cc(Cl)cnc4[nH]3)cn2)CC1)C(=O)O` [Example 63] registered a concentration for half-maximal inhibition (IC50) of 0.118 µM.

As to `CC(C)(COC1CCN(c2ccc(-c3nc4cc(Cl)c(Cl)cc4[nH]3)cn2)CC1)C(=O)O` [Example 64], 0.002 µM corresponded to half-maximal inhibition (IC50).

In turn, `Cc1ccc2[nH]c(-c3ccc(N4CCC(OCC(C)(C)C(=O)O)CC4)nc3)nc2n1` [Example 65] registered a half-inhibitory concentration (IC50) of 0.79 µM.

With `COc1ccc2[nH]c(-c3ccc(N4CCC(OCC(C)(C)C(=O)O)CC4)nc3)nc2n1` [Example 66], the midpoint of inhibition, the IC50, lay at 0.14 µM.

Take `O=C(O)[C@H]1CC[C@@H](OC2CCN(c3ccc(-c4nc5cc(C(F)(F)F)ccc5[nH]4)cn3)CC2)CC1` [Example 68, cis-4-[(1-{5-[5-(trifluoromethyl)-1H-benzimidazol-2-yl]pyridin-2-yl}piperidin-4-yl)oxy]cyclohexanecarboxylic acid]: the IC50 was determined as 0.002 µM.

Turning to `O=C(O)[C@H]1CC[C@H](OC2CCN(c3ccc(-c4nc5cc(C(F)(F)F)ccc5[nH]4)cn3)CC2)CC1` [Example 69, trans-4-[(1-{5-[5-(trifluoromethyl)-1H-benzimidazol-2-yl]pyridin-2-yl}piperidin-4-yl)oxy]cyclohexanecarboxylic acid], the IC50 is 0.002 µM.

Compound `O=C(O)[C@H]1CC[C@H](OC2CCN(c3ccc(-c4nc5ccc(C(F)(F)F)nc5[nH]4)cn3)CC2)CC1` [Example 70, trans-4-[(1-{5-[5-(trifluoromethyl)-3H-imidazo[4,5-b]pyridin-2-yl]pyridin-2-yl}piperidin-4-yl)oxy]cyclohexanecarboxylic acid] showed a concentration for half-maximal inhibition (IC50) of 0.011 µM.

`O=C(O)[C@H]1CC[C@H](OC2CCN(c3ccc(-c4nc5cc(Cl)ccc5[nH]4)cn3)CC2)CC1` [Example 71] gave an IC50 of 0.003 µM. This IC50 is about 3.7-fold lower than that of the compound before.

The compound `CCOC(=O)[C@H]1CC[C@H](OC2CCN(c3ccc(-c4nc5cc(Cl)ccc5[nH]4)cn3)CC2)CC1` [Example 72] registered an IC50 of 0.035 µM.

For the compound `CCOC(=O)[C@H]1CC[C@H](OC2CCN(c3ccc(-c4nc5cc(F)ccc5[nH]4)cn3)CC2)CC1` [Example 73], the IC50 is 0.071 µM.

`O=C(O)[C@H]1CC[C@H](OC2CCN(c3ccc(-c4nc5cc(F)ccc5[nH]4)cn3)CC2)CC1` [Example 74]: the half-maximal inhibitory concentration (IC50) was determined as 0.015 µM.

In turn, `CCOC(=O)[C@H]1CC[C@@H](OC2CCN(c3ccc(-c4nc5cc(Cl)ccc5[nH]4)cn3)CC2)CC1` [Example 75] returned a half-inhibitory concentration (IC50) of 0.014 µM.

As for `O=C(O)[C@H]1CC[C@@H](OC2CCN(c3ccc(-c4nc5cc(Cl)ccc5[nH]4)cn3)CC2)CC1` [Example 76], the IC50 came to 0.002 µM.

In turn, `CCOC(=O)[C@H]1CC[C@@H](OC2CCN(c3ccc(-c4nc5cc(F)ccc5[nH]4)cn3)CC2)CC1` [Example 77] registered an IC50 of 0.017 µM.

`O=C(O)[C@H]1CC[C@@H](OC2CCN(c3ccc(-c4nc5cc(F)ccc5[nH]4)cn3)CC2)CC1` [Example 78] had an IC50 of 0.006 µM.

For the compound `CC1(S(=O)(=O)NC(=O)[C@H]2CC[C@H](OC3CCN(c4ccc(-c5nc6cc(F)ccc6[nH]5)cn4)CC3)CC2)CC1` [Example 80, trans-4-({1-[5-(5-fluoro-1H-benzimidazol-2-yl)pyridin-2-yl]piperidin-4-yl}oxy)-N-[(1-methylcyclopropyl)sulfonyl]cyclohexanecarboxamide], the half-inhibitory concentration (IC50) is 0.023 µM. Compared with the last compound, the IC50 is about 3.8-fold higher.

Regarding `CC(C)S(=O)(=O)NC(=O)[C@H]1CC[C@H](OC2CCN(c3ccc(-c4nc5cc(F)ccc5[nH]4)cn3)CC2)CC1` [Example 81], the IC50 was 0.017 µM.

Turning to `O=C(NS(=O)(=O)c1cccnc1)[C@H]1CC[C@H](OC2CCN(c3ccc(-c4nc5cc(F)ccc5[nH]4)cn3)CC2)CC1` [Example 82], the half-maximal inhibitory concentration (IC50) was 0.019 µM.

`O=C(NS(=O)(=O)C1CC1)[C@H]1CC[C@H](OC2CCN(c3ccc(-c4nc5cc(F)ccc5[nH]4)cn3)CC2)CC1` [Example 83] registered an IC50 of 0.017 µM.

In turn, `O=C(NS(=O)(=O)c1ccccn1)[C@H]1CC[C@H](OC2CCN(c3ccc(-c4nc5cc(F)ccc5[nH]4)cn3)CC2)CC1` [Example 84] showed a concentration for half-maximal inhibition (IC50) of 0.025 µM.

Take `O=C(NS(=O)(=O)c1ccc(C(F)(F)F)cc1)[C@H]1CC[C@H](OC2CCN(c3ccc(-c4nc5cc(F)ccc5[nH]4)cn3)CC2)CC1` [Example 85]: the midpoint of inhibition, the IC50, lay at 0.009 µM.

With `CS(=O)(=O)NC(=O)[C@H]1CC[C@H](OC2CCN(c3ccc(-c4nc5cc(F)ccc5[nH]4)cn3)CC2)CC1` [Example 86], the IC50 is 0.019 µM. This IC50 is about 2.1-fold higher than that of the compound before.

`O=C(NS(=O)(=O)c1ccccc1)[C@H]1CC[C@H](OC2CCN(c3ccc(-c4nc5cc(F)ccc5[nH]4)cn3)CC2)CC1` [Example 87] came in with an IC50 of 0.014 µM.

As to `O=C(NS(=O)(=O)c1ccc(F)cc1)[C@H]1CC[C@H](OC2CCN(c3ccc(-c4nc5cc(F)ccc5[nH]4)cn3)CC2)CC1` [Example 88], the half-maximal inhibitory concentration (IC50) turned out to be 0.009 µM.

The compound `O=C(NS(=O)(=O)c1ccc(Cl)cc1)[C@H]1CC[C@H](OC2CCN(c3ccc(-c4nc5cc(F)ccc5[nH]4)cn3)CC2)CC1` [Example 89] came in with an IC50 of 0.004 µM.

For the compound `O=C(NS(=O)(=O)C(F)(F)F)[C@H]1CC[C@H](OC2CCN(c3ccc(-c4nc5cc(F)ccc5[nH]4)cn3)CC2)CC1` [Example 91], the IC50 is 0.007 µM.

`O=C(O)C1(C(=O)O)CC(OC2CCN(c3ccc(-c4nc5ccccc5[nH]4)cn3)CC2)C1` [Example 92] gave a half-inhibitory concentration (IC50) of 0.147 µM.

For the compound `O=C(O)C1(C(=O)O)CC(OC2CCN(c3ccc(-c4nc5cc(F)ccc5[nH]4)cn3)CC2)C1` [Example 93], the midpoint of inhibition, the IC50, lay at 0.071 µM.

With `O=C(O)C1(C(=O)O)CC(OC2CCN(c3ccc(-c4nc5cc(F)c(F)cc5[nH]4)cn3)CC2)C1` [Example 94], the IC50 came to 0.122 µM.

The compound `O=C(O)C1(C(=O)O)CC(OC2CCN(c3ccc(-c4nc5cc(C(F)(F)F)ccc5[nH]4)cn3)CC2)C1` [Example 95] gave an IC50 of 0.085 µM. The IC50 values of the last two compounds are within 1.5-fold of each other.

`N#Cc1ccc2[nH]c(-c3ccc(N4CCC(OC5CC(C(=O)O)(C(=O)O)C5)CC4)nc3)nc2c1` [Example 96] registered an IC50 of 0.277 µM.

`Cc1ccc2[nH]c(-c3ccc(N4CCC(OC5CC(C(=O)O)(C(=O)O)C5)CC4)nc3)nc2n1` [Example 97] gave an IC50 of 1 µM. This IC50 lies about 3.6-fold higher than the previous one.

`C[C@]1(C(=O)O)CC[C@@H](OC2CCN(c3ccc(-c4nc5ccc(C(F)(F)F)cc5[nH]4)cn3)CC2)CC1` [Example 98, cis-1-methyl-4-[(1-{5-[6-(trifluoromethyl)-1H-benzimidazol-2-yl]pyridin-2-yl}piperidin-4-yl)oxy]cyclohexanecarboxylic acid] yielded an IC50 of 0.004 µM. Against the preceding compound, the IC50 is about 250-fold lower.

Take `C[C@]1(C(=O)O)CC[C@H](OC2CCN(c3ccc(-c4nc5ccc(F)cc5[nH]4)cn3)CC2)CC1` [Example 99]: the IC50 was determined as 0.009 µM.

`C[C@]1(C(=O)O)CC[C@H](OC2CCN(c3ccc(-c4nc5ccc(C(F)(F)F)cc5[nH]4)cn3)CC2)CC1` [Example 100] gave a 50% inhibitory concentration (IC50) of 0.002 µM.

The compound `C[C@]1(C(=O)O)CC[C@H](OC2CCN(c3ccc(-c4nc5ccccc5[nH]4)cn3)CC2)CC1` [Example 101] displayed an IC50 of 0.027 µM.

On to `C[C@]1(C(=O)O)CC[C@H](OC2CCN(c3ccc(-c4nc5ccc(Cl)cc5[nH]4)cn3)CC2)CC1` [Example 102], for which 0.004 µM corresponded to half-maximal inhibition (IC50). Against the preceding compound, the IC50 is about 6.8-fold lower.

Turning to `C[C@]1(C(=O)O)C[C@H](OC2CCN(c3ccc(-c4nc5cc(C(F)(F)F)ccc5[nH]4)cn3)CC2)C1` [Example 103], half-maximal inhibition (IC50) required 0.004 µM. This lies in the single-digit nanomolar range.

In turn, `C[C@]1(C(=O)O)C[C@@H](OC2CCN(c3ccc(-c4nc5cc(C(F)(F)F)ccc5[nH]4)cn3)CC2)C1` [Example 104] had a 50% inhibitory concentration (IC50) of 0.006 µM.

`C[C@]1(C(=O)O)CC[C@@H](OC2CCN(c3ccc(-c4nc5ccccc5[nH]4)cn3)CC2)CC1` [Example 105, cis-4-({1-[5-(1H-benzimidazol-2-yl)pyridin-2-yl}piperidin-4-yl]oxy)-1-methylcyclohexanecarboxylic acid]: the IC50 came to 0.044 µM. This IC50 is about 7.3-fold higher than that of the compound before.

In turn, `C[C@]1(C(=O)O)CC[C@@H](OC2CCN(c3ccc(-c4nc5cc(F)c(F)cc5[nH]4)cn3)CC2)CC1` [Example 106] displayed an IC50 of 0.015 µM.

For `C[C@]1(C(=O)O)CC[C@@H](OC2CCN(c3ccc(-c4nc5ncc(C(F)(F)F)cc5[nH]4)cn3)CC2)CC1` [Example 107], the IC50 was determined as 0.048 µM. This IC50 lies about 3.2-fold higher than the previous one.

`C[C@]1(C(=O)O)CC[C@@H](OC2CCN(c3ccc(-c4nc5ncc(Cl)cc5[nH]4)cn3)CC2)CC1` [Example 108] yielded a concentration for half-maximal inhibition (IC50) of 0.125 µM.

`C[C@]1(C(=O)O)CC[C@@H](OC2CCN(c3ccc(-c4nc5cc(Cl)c(Cl)cc5[nH]4)cn3)CC2)CC1` [Example 109] gave an IC50 of 0.002 µM.

For the compound `Cc1ccc2[nH]c(-c3ccc(N4CCC(O[C@H]5CC[C@@](C)(C(=O)O)CC5)CC4)nc3)nc2n1` [Example 110], 0.425 µM corresponded to half-maximal inhibition (IC50).
